Measurements from patent US12060588B2, “Methods of editing DNA methylation” (Whitehead Institute for Biomedical Research, priority 2016, dated 2024).

System: BDNF promoter IV / BDNF expression
Test: BDNF expression in mouse cortical neurons (RT-qPCR)
Assay type: cell-based
Description: FIGS. 3A-3E depict targeted demethylation of BDNF promoter IV by dCas9-Tet1 to activate BDNF in neurons. FIG. 3A provides a schematic representation of targeting BDNF promoter IV by dCas9-Tet1 (dC-T) with specific gRNAs to erase methylation and activate BDNF expression. […] Bars are mean t SD of three biological replicates. FIG. 3C provides representative confocal images for BDNF induction in FIG. 3B. Top panel: BDNF expression was induced by 50 mM KCl treatment for 6 hrs. […] Stained in red for MAP2 (top two panels) or Cherry (bottom two panels), green for BDNF, blue for DAPI and grey for dCas9. Scale bar: 50 um. FIG. 3D depicts bisulfite sequencing of neurons in FIG. 3C. […] Shown is the mean percentage±SD of two biological replicates.
FIGS. 11A-11L depict targeted demethylation of BDNF promoter IV by dCas9-Tet1 in neurons. […] PAM for each gRNA is highlighted by a red box. […] Note that cultured neurons were treated with AraC on DIV2 to halt cell division in glial cells and neural progenitors. […] FIG. 11C provides EDU labeling analysis for the mouse primary neurons over the course of KCl treatment for 24 hrs. Note that extremely few EDU positive cells were observed. Stained in red for EDU, green for MAP2 and DAPI for nuclei. Scale bar: 500 um. FIG. 11D Upper panel: provides quantification of neuronal density over the course of KCl treatment. The post-mitotic neuron density remains steadily around 4.5×10^4/cm2 over time. Bars represent mean±SD of three experimental replicates. Lower panel: provides quantification of the EDU positive cells over the course of KCl treatment. Less than 2% of the cells are EDU-positive over 24 hrs. Bars represent mean±SD of three experimental replicates. FIG. 11E provides confocal micrographs of BDNF induction by ectopic expression of dCas9-Tet1 and a set of 4 gRNAs targeting BDNF promoter IV. Stained in green for BDNF, magenta for MAP2, red for Cherry and blue for DAPI. Note that the lentiviral infection efficiency is close to 100% in these neurons. Scale bar: 50 um. […] Bars represent mean±SD of three experimental replicates. […] FIG. 11J depicts DIV3 mouse cortical neurons were treated with ABT (50 uM) for 6 hours and then treated with KCl (50 mM) for 6-hour before harvest for RT-qPCR analysis. Bars represent mean±SD of three experimental replicates. FIG. 11K depicts DIV3 mouse cortical neurons were treated with 2-Hydroxyglutarate (10 mM) for 2 hours and then treated with KCl (50 mM) for 6-hour before harvest for RT-qPCR analysis. Bars represent mean±SD of three experimental replicates. FIG. 11L depicts DIV3 mouse cortical neurons derived from wild-type or Tet1 knockout E17.5 embryos were subject to time course KCl treatment experiments (6, 9 and 12 h). Bars represent mean±SD of three experimental replicates.
DNA replication-independent active demethylation has been proposed to operate in post-mitotic neurons (Guo et al., 2011; Martinowich et al., 2003). To test whether active demethylation can be induced in post-mitotic neurons, we applied the dCas9-Tet1 system to study the regulation of the BDNF gene. BDNF expression can be induced by neuronal activity accompanied by demethylation of its promoter IV (Chen et al., 2003; Martinowich et al., 2003). We designed 4 gRNAs targeting 11 CpGs in BDNF promoter IV (FIG. 11A) to determine whether dCas9-Tet1 can activate BDNF by inducing demethylation of this promoter (FIG. 3A). Mouse cortical neurons were isolated from E17.5 embryos and cultured for two days in vitro (DIV2) following a well-established experimental procedure for producing primary neuronal culture (Ebert et al., 2013). […] Neurons at day 3 in culture (DIV3) were infected with lentiviral vectors expressing dCas9-Tet1 with or without the 4 gRNAs at almost 100% transduction efficiency (FIG. 11E). At 48-hour post infection some of the cultures were treated with KCl to induce neuronal activity. […] We performed bisulfite sequencing to examine the methylation state of BDNF promoter IV. […]

[1] = with 4 gRNAs targeting BDNF promoter IV, DIV3 neurons, lentiviral infection 2 days

Substance	induction of BDNF expression [1]	induction of BDNF expression (in the absence of gRNAs, DIV3 neurons, lentiviral infection 2 days)	induction of BDNF expression (with each individual gRNA targeting BDNF promoter IV)
dC-dT: dCas9 fused to an inactive mutant form of Tet1 (H1672Y, D1674A), SEQ ID NO: 160	no induction	–	–
dCas9-Tet1: catalytically inactive Cas9 (dCas9) fused through NLS to the Tet1 catalytic domain, SEQ ID NO: 159; lentivirally expressed with gRNAs	about 6 fold	less than 2 fold	2-3 fold
